# Experimental data published in patent US4478833A, “Trisubstituted pyrimido[5,4-d]pyrimidines and salts thereof” (Dr. Karl Thomae Gesellschaft mit beschrankter Haftung, priority 1980, dated 1984).
# Like-named read-outs stand apart in the source and are kept apart here.
# Tests used:
# [1] = tested on: thrombocyte aggregation (platelet-rich plasma of healthy test persons); experiment: Collagen-induced thrombocyte (platelet) aggregation in platelet-rich plasma, method of Born and Cross; format: cell-based, human; settings: sodium citrate, 10 minutes incubation at 37° C., read-out: EC50 (50% change in optical density, inhibition of collagen-induced aggregation)
# Experimental: Thrombocyte aggregation was measured according to the method of Born and Cross [J. Physiol. 170, 397 (1964)]in platelet-rich plasma of healthy test persons. To inhibit coagulation, the blood was mixed with sodium citrate in a volume ration of 1:10.
# After addition of the aggregation-inducing substance, the rate of decrease in optical density of the platelet suspension is measured photometrically and recorded. The rate of aggregation was determined from the angle of inclination of the density curve. The point on the curve at which there was the greatest translucence served for calculating the optical density.
# The quantity of collagen was chosen as small as possible, but sufficient so that an irreversible reaction was obtained. Commercial collagen of Hormonchemie, Munich, was used. Before the collagen was added, the plasma was incubated for 10 minutes with the test substance at 37° C.
# An EC50 corresponding to a 50% change in the optical density with respect to aggregation inhibition was calculated graphically from the measurement values obtained.
# [2] = Acute toxicity in mice after oral administration; format: in vivo; settings: mouse, in vivo, po, dose of 250 mg/kg, observation time 14 days
# Experimental: (§1) The acute toxicity of the test compounds was determined on groups of 6 to 10 mice after oral administration of a dose of 250 mg/kg (observation time: 14 days). For this purpose, the substances were suspended in 2% methyl cellulose, some water was subsequently added and the test substance was administered to the conscious animals by esophageal tube.
# [3] = tested on: mice; experiment: Acute toxicity in mice after oral administration; format: in vivo; settings: 250 mg/kg p.o., observation time 14 days
# Experimental: as §1
Structure (SMILES),"EC50 ([1]; Homo sapiens, 10 min)",LD50 at 336 h [2],animals died (out of animals tested) [3],EC50 [1]
"CSc1ccc(C(C)Sc2ncnc3c(N4CC[S+]([O-])CC4)nc(NCCO)nc23)cc1 (stereo not drawn) [F, 2-(2-Hydroxyethyl-amino)-8-(α-methyl-4-methylthiobenzylthio)-4-(1-oxido-thiomorpholino)-pyrimido[5,4-d]pyrimidine]",29 nM,> 250 mg/kg,0 out of 6,
"COCCN(CCO)c1nc(N2CC[S+]([O-])CC2)c2ncnc(OCc3ccccc3)c2n1 [O, 8-Benzyloxy-2-[N-(2-hydroxy-ethyl)-N-(2-methoxy-ethyl)amino]-4-(1-oxido-thiomorpholino)-pyrimido[5,4-d]pyrimidine]",300 nM,> 250 mg/kg,0 out of 6,
"CC(Nc1ncnc2c(N3CC[S+]([O-])CC3)nc(NCCO)nc12)c1ccccc1 [I, 2-(2-Hydroxyethyl-amino)-4-(1-oxido-thiomorpholino)-8-(L-1-phenylethyl-amino)-pyrimido[5,4-d]pyrimidine]",,,,28 nM
"[O-][S+]1CCN(c2nc(N(CCO)CCO)nc3c(OCCCc4ccccc4)ncnc23)CC1 [P, 2-Diethanolamino-4-(1-oxido-thiomorpholino)-8-(3-phenylpropoxy)-pyrimido[5,4-d]pyrimidine]",360 nM,> 250 mg/kg,0 out of 6,
"[O-][S+]1CCN(c2nc(NCCO)nc3c(SCc4ccccc4)ncnc23)CC1 [C, 8-Benzylthio-2-(2-hydroxyethyl-amino)-4-(1-oxido-thiomorpholino)-pyrimido[5,4-d]pyrimidine]",21 nM,> 250 mg/kg,0 out of 10,
"[O-][S+]1CCN(c2nc(NCCO)nc3c(SCc4ccco4)ncnc23)CC1 [G, 8-Furfurylthio-2-(2-hydroxyethyl-amino)-4-(1-oxidothiomorpholino)-pyrimido[5,4-d]pyrimidine]",52 nM,> 250 mg/kg,0 out of 6,
"[O-][S+]1CCN(c2nc(N(CCO)CCO)nc3c(SCc4ccccc4)ncnc23)CC1 [D, 8-Benzylthio-2-diethanolamino-4-(1-oxido-thiomorpholino)pyrimido[5,4-d]pyrimidine]",62 nM,> 250 mg/kg,0 out of 10,
"CC(C)CCOc1ncnc2c(N3CC[S+]([O-])CC3)nc(N(CCO)CCO)nc12 [M, 2-Diethanolamino-8-isopentoxy-4-(1-oxido-thiomorpholino)-pyrimido[5,4-d]pyrimidine]",460 nM,> 250 mg/kg,0 out of 6,
"[O-][S+]1CCN(c2nc(N(CCO)CCO)nc3c(N4CCCCC4)ncnc23)CC1 [L, 2-Diethanolamino-4-(1-oxido-thiomorpholino)-8-piperidino-pyrimido[5,4-d]pyrimidine]",690 nM,> 250 mg/kg,0 out of 10,
"COCCN(CCO)c1nc(N2CC[S+]([O-])CC2)c2ncnc(SCc3ccccc3)c2n1 [Compound E, 8-Benzylthio-2-[N-(2-hydroxy-ethyl)-N-(2-methoxyethyl)-amino]-4-(1-oxido-thiomorpholino)-pyrimido[5,4-d]pyrimidine]",52 nM,> 250 mg/kg,0 out of 10,
"[O-][S+]1CCN(c2nc(NCCO)nc3c(SC4CCCCC4)ncnc23)CC1 [B, 8-Cyclohexylthio-2-(2-hydroxyethyl-amino)-4-(1-oxido-thiomorpholino)-pyrimido[5,4-d]pyrimidine]",48 nM,> 250 mg/kg,0 out of 10,
"[O-][S+]1CCN(c2nc(N(CCO)CCO)nc3c(OCc4ccccc4)ncnc23)CC1 [N, 8-Benzyloxy-2-diethanolamino-4-(1-oxido-thiomorpholino)-pyrimido[5,4-d]pyrimidine]",230 nM,> 250 mg/kg,0 out of 10,
"[O-][S+]1CCN(c2nc(NCCO)nc3c(NCc4ccc(Cl)cc4)ncnc23)CC1 [K, 8-(4-Chlorobenzyl-amino)-2-(2-hydroxyethyl-amino)-4-(1-oxido-thiomorpholino)-pyrimido[5,4-d]pyrimidine]",280 nM,> 250 mg/kg,0 out of 10,
"CCCCN(CC)c1ncnc2c(N3CC[S+]([O-])CC3)nc(NCCO)nc12 [H, 8-(N-Ethyl-butylamino)-2-(2-hydroxyethyl-amino)-4-(1-oxidothiomorpholino)-pyrimido[5,4-d]pyrimidine]",300 nM,> 250 mg/kg,0 out of 6,
"CCCSc1ncnc2c(N3CC[S+]([O-])CC3)nc(NCCO)nc12 [A, 2-(2-Hydroxyethyl-amino)-4-(1-oxido-thiomorpholino)-8-propylthio-pyrimido[5,4-d]pyrimidine]",310 nM,> 250 mg/kg,0 out of 6,
